Molecular target: ERK protein (Mus musculus, UniProt P63085)
Test: TdF (Temperature Dependence Fluorescence, thermal shift) assay for ERK
Format: binding
Settings: Table 2; 3 μM ERK protein
Excerpt: The SAR (Structure Activity Relationship) for ERK ligands covered by this invention was interrogated using the TdF (Temperature Dependence Fluorescence) assay or best known as thermal shift assay. (M. W. Pantoliano, et al., “High-density miniaturized thermal shift assays as a general strategy for drug discovery,” J. Biomol. Screen 6 (2001) 429-440) The TdF assay was mainly conducted in the 96-well based CHROMO-4 real time fluorescence plate reader (BioRad). The Sypro Orange (Sigma-Aldrich), environmentally sensitive fluorescence dye, was used to monitor the protein folding-unfolding transition. Protein-ligand binding was gauged by the change (or shift) in the unfolding transition temperature (ΔTm) acquired at protein alone with respect to protein in the presence of ligand of interest.
Compound of interest was first prepared in DMSO stock (typical concentration: 10 mM). […] Final percentage of DMSO resided in the sample was 2%. The sample plate was heated from 30° C. to 90° C. with thermal ramping rate of 1° C./min. The fluorescence signals were acquired with excitation and emission wavelengths centered at 490 and 560 nm respectively. The instrument thermal stability was ±0.2° C. The melting temperatures (Tm) for ERK protein under aforementioned conditions occurred at […] and 64.8±0.2° C. respectively.
The derivation of TdF-based ligand binding affinity constant (Kd) followed closely those previously formulated by Brandts and Lin. (J. F. Brandts, L.-N. Lin, “Study of strong to ultratight protein interactions using differential scanning calorimetry,” Biochemistry 29 (1990) 6927-6940). In brief, the binding constant of the ligand at the Tm is expressed as below:
[formula] where T0 is the midpoint of unfolding for unliganded protein and Tm is the midpoint of unfolding in presence of ligand. [LTm] is free ligand at Tm. The ΔHu and ΔCpu are the enthalpy of unfolding and heat capacity change of unfolding for the protein respectively. Following algorithm derived by Winsor and coworker, the T0, ΔHu and ΔCpu can be determined separately from nonlinear regression fitting the protein alone melting curve:
[formula] where F(T) is the observed fluorescence intensity at any temperature T, Yn, and Yu are the predicted fluorescence intensities for fully folded and unfolded protein, respectively; mn and mu are slope correction for changes in Yn and Yu with respect to changes in temperature (analogously replace T0 with Tm in the above equation for liganded protein to yield Tm). (Mayhood, T. W., Windsor, W. T., “Ligand binding affinity determined by temperature-dependent circular dichroism: Cyclin-dependent kinase 2 inhibitors,” Analytical Biochemistry 345 (2005) 187-197).
[formula] where ΔHL (T) is the van't Hoff enthalpy of ligand binding at temperature T and ΔCpL is the heat capacity upon ligand binding. For simplicity, the ΔCpL and ΔHL (T) were set to zero and -7 kcal/mol respectively. […]

ERK protein, sequence (P63085 2-358 limits assumed): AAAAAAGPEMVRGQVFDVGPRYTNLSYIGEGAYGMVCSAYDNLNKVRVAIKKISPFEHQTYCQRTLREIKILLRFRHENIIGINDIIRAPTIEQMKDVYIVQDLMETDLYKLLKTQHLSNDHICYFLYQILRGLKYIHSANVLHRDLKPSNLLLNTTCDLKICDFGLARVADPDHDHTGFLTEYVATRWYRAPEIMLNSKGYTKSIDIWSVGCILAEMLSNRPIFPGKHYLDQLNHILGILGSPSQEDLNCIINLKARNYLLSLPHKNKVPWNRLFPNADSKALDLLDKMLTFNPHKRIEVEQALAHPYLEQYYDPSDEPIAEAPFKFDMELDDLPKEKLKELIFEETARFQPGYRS

| SMILES | Kd [µM] |
| --- | --- |
| O=C(N[C@@H]1CCCN(Cc2csc3ccccc23)C1)N1CCc2[nH]nc(-c3ccc4nccn4c3)c2C1 [Compound 109, N-[1-(benzo[b]thien-3-ylmethyl)-3(R)-piperidinyl]-1,4,6,7-tetrahydro-3-(imidazo[1,2-a]pyridin-6-yl)-5H-pyrazolo[4,3-c]pyridine-5-carboxamide] | 0.00014 |
| Cc1ccsc1CN1CCC[C@@H](NC(=O)N2CCc3[nH]nc(-c4ccncc4)c3C2)C1 [Compound 58, 1,4,6,7-tetrahydro-N-[1-[(3-methyl-2-thienyl)methyl]-3(R)-piperidinyl]-3-(4-pyridinyl)-5H-pyrazolo[4,3-c]pyridine-5-carboxamide] | 0.00025 |
| O=C(N[C@@H]1CCCN(Cc2csc3ccccc23)C1)N1CCc2[nH]nc(-c3ccncc3)c2C1 [Compound 57, N-[1-(benzo[b]thien-3-ylmethyl)-3(R)-piperidinyl]-1,4,6,7-tetrahydro-3-(4-pyridinyl)-5H-pyrazolo[4,3-c]pyridine-5-carboxamide] | 0.0003 |
| Cc1noc(-c2ccccc2)c1CN1CCC[C@@H](NC(=O)N2CCc3[nH]nc(-c4ccncc4)c3C2)C1 [Compound 75, 1,4,6,7-tetrahydro-N-[1-[(3-methyl-5-phenyl-4-isoxazolyl)methyl]-3(R)-piperidinyl]-3-(4-pyridinyl)-5H-pyrazolo[4,3-c]pyridine-5-carboxamide] | 0.00136 |

The next lines start with the values.

| Kd [µM] | SMILES |
| --- | --- |
| 0.00031 | O=C(N[C@@H]1CCCN(Cc2ccccc2Cl)C1)N1CCc2[nH]nc(-c3ccncc3)c2C1 [Compound 69, N-[1-[(2-chlorophenyl)-methyl]-3(R)-piperidinyl]-1,4,6,7-tetrahydro-3-(4-pyridinyl)-5H-pyrazolo[4,3-c]pyridine-5-carboxamide] |
| 0.00155 | Cc1onc(-c2ccccc2)c1CN1CCC[C@@H](NC(=O)N2CCc3[nH]nc(-c4ccncc4)c3C2)C1 [Compound 76, 1,4,6,7-tetrahydro-N-[1-[(5-methyl-3-phenyl-4-isoxazolyl)methyl]-3(R)-piperidinyl]-3-(4-pyridinyl)-5H-pyrazolo[4,3-c]pyridine-5-carboxamide] |

Molecular target: Mouse ERK2 protein (Mus musculus (Mouse), UniProt P63085)
Test: Coupled MEK1/ERK2 IMAP assay or Active ERK2 IMAP assay
Format: biochemical
Settings: Table 1, class symbols, 30 μM ATP

Mouse ERK2 protein, sequence (P63085 whole entry): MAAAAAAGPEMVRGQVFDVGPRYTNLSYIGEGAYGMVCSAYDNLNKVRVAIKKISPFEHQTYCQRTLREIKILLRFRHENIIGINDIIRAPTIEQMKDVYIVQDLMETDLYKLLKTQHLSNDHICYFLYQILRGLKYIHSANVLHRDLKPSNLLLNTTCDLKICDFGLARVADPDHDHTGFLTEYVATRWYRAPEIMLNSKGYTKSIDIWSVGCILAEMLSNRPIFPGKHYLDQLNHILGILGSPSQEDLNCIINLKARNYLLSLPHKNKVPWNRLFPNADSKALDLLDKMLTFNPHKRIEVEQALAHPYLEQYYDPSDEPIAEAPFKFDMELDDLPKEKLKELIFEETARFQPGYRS

| SMILES | IC50 [µM] |
| --- | --- |
| COc1cccc(F)c1CN1CC(NC(=O)N2CCc3[nH]nc(-c4ccnc(C)c4)c3C2)CCC1C (centres unmarked) [Compound 121, N-[1-[(2-fluoro-6-methoxyphenyl)methyl]-6-methyl-3-piperidinyl]-1,4,6,7-tetrahydro-3-(2-methyl-4-pyridinyl)-5H-pyrazolo[4,3-c]pyridine-5-carboxamide] | 0.021 to 0.1 |
| COc1cccc(F)c1CN1CC2CC(NC(=O)N3CCc4[nH]nc(-c5ccncc5)c4C3)C1C2 (centres unmarked) [Compound 108, N-[2-[(2-fluoro-6-methoxyphenyl)methyl]-2-azabicyclo[2.2.1]hept-6-yl]-1,4,6,7-tetrahydro-3-(4-pyridinyl)-5H-pyrazolo[4,3-c]pyridine-5-carboxamide] | 0.101 to 1 |
| O=C(NC1CN(Cc2c(F)cccc2F)CCC1F)N1CCc2[nH]nc(-c3ccc4nccn4c3)c2C1 (mixture of isomers) [Compound 156, N-[cis/trans-1-[(2,6-difluorophenyl)methyl]-4-fluoro-3-piperidinyl]-1,4,6,7-tetrahydro-3-imidazo[1,2-a]pyridin-6-yl-5H-pyrazolo[4,3-c]pyridine-5-carboxamide] | 0.101 to 1 |
| CN1C[C@@H](NC(=O)N2CCc3[nH]nc(-c4ccncc4)c3C2)[C@H](c2ccccc2-c2ccccc2)C1 (racemic) [Compound 163, N-[trans-4-[1,1′-biphenyl]-2-yl-1-methyl-3-pyrrolidinyl]-1,4,6,7-tetrahydro-3-(4-pyridinyl)-5H-pyrazolo[4,3-C]pyridine-5-carboxamide] | < 0.02 |
| Cc1cc(-c2n[nH]c3c2CN(C(=O)NC2(C)CCCN(Cc4csc5ccccc45)C2)CC3)ccn1 (centres unmarked) [Compound 88, N-[1-(benzo[b]thien-3-ylmethyl)-3-methyl-3-piperidinyl]-1,4,6,7-tetrahydro-3-(2-methyl-4-pyridinyl)-5H-pyrazolo[4,3-c]pyridine-5-carboxamide] | 0.101 to 1 |
| COc1cccc(F)c1CN1CC[C@@H](NC(=O)N2CCc3[nH]nc(-c4ccnc(C)c4)c3C2)C1 [Compound 116, N-[1-[(2-fluoro-6-methoxyphenyl)methyl]-3(R)-pyrrolidinyl]-1,4,6,7-tetrahydro-3-(2-methyl-4-pyridinyl)-5H-pyrazolo[4,3-c]pyridine-5-carboxamide] | 0.021 to 0.1 |
| Cc1cc(-c2n[nH]c3c2CN(C(=O)N[C@@H]2CC[C@H]4CC[C@@H]2N4Cc2ccccc2F)CC3)ccn1 [Compound 168, N-[exo-8-[(2-fluorophenyl)methyl]-8-azabicyclo[3.2.1]oct-2-yl]-1,4,6,7-tetrahydro-3-(2-methyl-4-pyridinyl)-5H-pyrazolo[4,3-c]pyridine-5-carboxamide] | < 0.02 |
| O=C(N1CCc2[nH]nc(-c3ccncc3)c2C1)C1(c2ccc(Cl)cc2Cl)CC1 [Compound 28, 5-[[1-(2,4-dichlorophenyl)-cylcopropyl]carbonyl]-4,5,6,7-tetrahydro-3-(4-pyridinyl)-1H-pyrazolo[4,3-c]pyridine] | 0.101 to 1 |

Other lines, results leading:

| IC50 [µM] | SMILES |
| --- | --- |
| 0.101 to 1 | Cc1cc(-c2n[nH]c3c2CN(C(=O)NC2CC(C)CN(Cc4c(F)cccc4C(F)(F)F)C2)CC3)ccn1 (centres unmarked) [Compound 95, N-[1-[[2-fluoro-6-(trifluoro-methyl)phenyl]methyl]-5-methyl-3-piperidinyl]-1,4,6,7-tetrahydro-3-(2-methyl-4-pyridinyl)-5H-pyrazolo[4,3-c]pyridine-5-carboxamide] |
| 0.021 to 0.1 | COc1ccc(CN2CCC[C@@H](NC(=O)N3CCc4[nH]nc(-c5ccnc(C)c5)c4C3)C2)c2ccccc12 [Compound 99, 1,4,6,7-tetrahydro-N-[1-[(4-Methoxy-1-naphthalenyl)-methyl]-3(R)-piperidinyl]-3-(2-methyl-4-pyridinyl)-5H-pyrazolo[4,3-c]pyridine-5-carboxamide] |
| 0.021 to 0.1 | O=C(N[C@@H]1CCCN(Cc2c(F)cccc2C(F)(F)F)C1)N1CCc2[nH]nc(-c3ccncc3)c2C1 [Compound 68, N-[1-[[2-fluoro-6-(trifluoromethyl)phenyl]meth-yl]-3(R)-piperidinyl]-1,4,6,7-tetrahydro-3-(4-pyridinyl)-5H-pyrazolo[4,3-c]pyridine-5-carboxamide] |
| < 0.02 | O=C(N[C@@H]1CCCN(Cc2ccsc2)C1)N1CCc2[nH]nc(-c3ccncc3)c2C1 [Compound 56, 1,4,6,7-tetrahydro-3-(4-pyridinyl)-N-[1-(3-thienylmethyl)-3(R)-piperidinyl]-5H-pyrazolo[4,3-c]pyridine-5-carboxamide] |
| < 0.02 | Cc1nc2ccc(-c3n[nH]c4c3CN(C(=O)N[C@@H]3CCCN(Cc5coc6ccccc56)C3)CC4)cc2s1 [Compound 176, N-[1-(3-benzofuranylmethyl)-3(R)-piperidinyl]-1,4,6,7-tetrahydro-3-(2-methyl-6-benzothiazolyl)-5H-pyrazolo[4,3-c]pyridine-5-carboxamide] |
| < 0.02 | CN1C[C@@H](NC(=O)N2CCc3[nH]nc(-c4ccc5c(c4)CCO5)c3C2)[C@H](c2ccccc2C(F)(F)F)C1 (racemic) [Compound 153, 3-(2,3-dihydro-5-benzofuranyl)-1,4,6,7-tetrahydro-N-[trans-1-methyl-4-[2-(trifluoromethyl)phenyl]-3-pyrrolidinyl]-5H-pyrazolo[4,3-c]pyridine-5-carboxamide] |
| 0.021 to 0.1 | Cn1cc2cc(-c3n[nH]c4c3CN(C(=O)N[C@@H]3CCCN(Cc5c(F)cccc5F)C3)CC4)ccc2n1 [Compound 133, N[1-[(2,6-difluorophenyl)-methyl]-3(R)-piperidinyl]-1,4,6,7-tetrahydro-3-(2-methyl-2H-indazol-5-yl)-5H-pyrazolo[4,3-c]pyridine-5-carboxamide] |
| 0.021 to 0.1 | COc1cccc(F)c1CN1[C@H]2CC[C@@H](NC(=O)N3CCc4[nH]nc(-c5ccnc(C)c5)c4C3)[C@@H]1CC2 [Compound 162, N-[exo-8-[(2-fluoro-6-methoxyphenyl)methyl]-8-azabicyclo[3.2.1]oct-2-yl]-1,4,6,7-tetrahydro-3-(2-methyl-4-pyridinyl)-5H-pyrazolo[4,3-c]pyridine-5-carboxamide] |

Same assay, conditions: Table 2, 30 μM ATP

| IC50 [µM] | SMILES |
| --- | --- |
| 0.003 | O=C(N[C@@H]1CCCN(Cc2csc3ccccc23)C1)N1CCc2[nH]nc(-c3ccc4nccn4c3)c2C1 [Compound 109, N-[1-(benzo[b]thien-3-ylmethyl)-3(R)-piperidinyl]-1,4,6,7-tetrahydro-3-(imidazo[1,2-a]pyridin-6-yl)-5H-pyrazolo[4,3-c]pyridine-5-carboxamide] |
| 0.00198 | Cc1ccsc1CN1CCC[C@@H](NC(=O)N2CCc3[nH]nc(-c4ccncc4)c3C2)C1 [Compound 58, 1,4,6,7-tetrahydro-N-[1-[(3-methyl-2-thienyl)methyl]-3(R)-piperidinyl]-3-(4-pyridinyl)-5H-pyrazolo[4,3-c]pyridine-5-carboxamide] |
| 0.0005 | O=C(N[C@@H]1CCCN(Cc2csc3ccccc23)C1)N1CCc2[nH]nc(-c3ccncc3)c2C1 [Compound 57, N-[1-(benzo[b]thien-3-ylmethyl)-3(R)-piperidinyl]-1,4,6,7-tetrahydro-3-(4-pyridinyl)-5H-pyrazolo[4,3-c]pyridine-5-carboxamide] |
| 0.0024 | O=C(N[C@@H]1CCCN(Cc2ccccc2Cl)C1)N1CCc2[nH]nc(-c3ccncc3)c2C1 [Compound 69, N-[1-[(2-chlorophenyl)-methyl]-3(R)-piperidinyl]-1,4,6,7-tetrahydro-3-(4-pyridinyl)-5H-pyrazolo[4,3-c]pyridine-5-carboxamide] |
